This assay concerns the target T1, Glucocorticoid Receptor (Homo sapiens, UniProt P04150).
T1 construct: expressed in transfected cells
T1 sequence (P04150 524-758 limits assumed): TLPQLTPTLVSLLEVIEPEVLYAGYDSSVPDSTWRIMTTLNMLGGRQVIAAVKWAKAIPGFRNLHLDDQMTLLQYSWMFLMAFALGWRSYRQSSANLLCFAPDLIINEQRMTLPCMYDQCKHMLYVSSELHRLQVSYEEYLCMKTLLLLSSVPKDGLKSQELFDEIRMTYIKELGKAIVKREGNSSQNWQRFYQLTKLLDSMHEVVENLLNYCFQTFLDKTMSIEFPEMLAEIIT
Briefly: Agonistic mode of action on the glucocorticoid receptor (CHO-Gal4/GR luciferase reporter cell line). The format is cell-based. The conditions noted are these: CHO-Gal4/GR luciferase reporter cells; observed in the agonistic assay or the antagonistic assay (mode not given); read-out: IC50 or EC50 range. Summed up: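 CHO cells stably expressing GAL4 DBD–GR ligand-binding domain fusion with GAL4-UAS firefly luciferase reporter, seeded 24 h, then treated in Opti-MEM with 8 half-log concentrations from 10 μM to 0.003 μM (0.5% DMSO), quadruplicate. Luminescence read on FLIPR after lysis with Triton/luciferin; EC50 calculated.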
For orientation: In a reporter assay the amount or activity of a reporter protein is the signal.

Consider `Cc1c(-c2cc(F)cc3c(C)c[nH]c23)c(F)c(F)c2c1-n1c(C)nnc1C(C)(C)N2` [Example 514, 6,7-Difluoro-8-(5-fluoro-3-methyl-1H-indol-7-yl)-1,4,4,9-tetramethyl-5H-[1,2,4]triazolo[4,3-a]quinoxaline], for which the IC50 or EC50 (antagonist or agonist mode, not stated per compound) is less than 100 nM. The figure for `Cc1n[nH]c2c(-c3cc(F)c4c(c3C(F)F)-n3c(C)nnc3C(C)(C)N4)cccc12` [Example 466, 9-(difluoromethyl)-6-fluoro-1,4,4-trimethyl-8-(3-methyl-1H-indazol-7-yl)-4,5-dihydro-[1,2,4]triazolo[4,3-a]quinoxaline] is 100 to 1000 nM; for `COCCn1ccc2c(-c3cc(F)c4c(c3OC)-n3c(C)nnc3C(C)(C)N4)cc(F)cc21` [Example 54, 6-Fluoro-8-[6-fluoro-1-(2-methoxy-ethyl)-1H-indol-4-yl]-9-methoxy-1,4,4-trimethyl-5H-[1,2,4]triazolo[4,3-a]quinoxaline] it is 100 to 1000 nM. `COc1c(-c2cc(F)cc3[nH]ccc23)cc(Cl)c2c1-n1c(C)nnc1C(C)(C)N2` [Example 488, 6-Chloro-8-(6-fluoro-1H-indol-4-yl)-9-methoxy-1,4,4-trimethyl-5H-[1,2,4]triazolo[4,3-a]quinoxaline]: the IC50 or EC50 (antagonist or agonist mode, not stated per compound) was less than 100 nM. With `Cc1c(-c2cc(F)cc3c2cnn3S(C)(=O)=O)cc(F)c2c1-n1c(C)nnc1C(C)(C)N2` [Example 340, 6-Fluoro-8-(6-fluoro-1-methylsulfonyl-1H-indazol-4-yl)-1,4,4,9-tetramethyl-5H-[1,2,4]triazolo[4,3-a]quinoxaline], the IC50 or EC50 (antagonist or agonist mode, not stated per compound) lay in the range of 100 to 1000 nM. The figure for `Cc1c(-c2cccc3[nH]ncc23)cc(F)c2c1-n1c(C)nnc1C(C)(C)N2` [Example 504, 6-Fluoro-8-(1H-indazol-4-yl)-1,4,4,9-tetramethyl-5H-[1,2,4]triazolo[4,3-a]quinoxaline] is 100 to 1000 nM; for `CNc1c(-c2cc(F)cc3c2ccn3S(C)(=O)=O)cc(F)c2c1-n1c(C)nnc1C(C)(C)N2` [Example 486, [6-Fluoro-8-(6-fluoro-1-methylsulfonyl-1H-indol-4-yl)-1,4,4-trimethyl-5H-[1,2,4]triazolo[4,3-a]quinoxalin-9-yl]-methyl-amine] it is 100 to 1000 nM. `Cc1c[nH]c2c(-c3cc(F)c4c(c3C3CC3)-n3c(C)nnc3C(C)(C)N4)cccc12` [Example 472, 9-Cyclopropyl-6-fluoro-1,4,4-trimethyl-8-(3-methyl-1H-indol-7-yl)-5H-[1,2,4]triazolo[4,3-a]quinoxaline]: the IC50 or EC50 (antagonist or agonist mode, not stated per compound) was in the range of 100 to 1000 nM. Consider `Cc1c(-c2cc(F)cc3[nH]ccc23)cc(F)c2c1-n1c(C)nnc1C(C)(C)N2` [Example 465, 6-fluoro-8-(6-fluoro-1H-indol-4-yl)-1,4,4,9-tetramethyl-4,5-dihydro-[1,2,4]triazolo[4,3-a]quinoxaline], for which the IC50 or EC50 (antagonist or agonist mode, not stated per compound) was less than 100 nM.

In the case of `COc1c(-c2cccc3[nH]ccc23)cc(F)c2c1-n1c(C)nnc1C(C)(C)N2` [Example 469, 6-Fluoro-8-(1H-indol-4-yl)-9-methoxy-1,4,4-trimethyl-5H-[1,2,4]triazolo[4,3-a]quinoxaline], the IC50 or EC50 (antagonist or agonist mode, not stated per compound) lay within 100 to 1000 nM. The figure for `Cc1c(-c2cc(F)cc3c2ccn3S(C)(=O)=O)c(F)c(Cl)c2c1-n1c(C)nnc1C(C)(C)N2` [Example 503, 6-Chloro-7-fluoro-8-(6-fluoro-1-methylsulfonyl-1H-indol-4-yl)-1,4,4,9-tetramethyl-5H-[1,2,4]triazolo[4,3-a]quinoxaline] is 1000 to 15000 nM; for `Cc1nnc2n1-c1c(c(F)c(F)c(-c3cc(F)cc4c3ccn4S(C)(=O)=O)c1C(F)(F)F)NC2(C)C` [Example 518, 6,7-difluoro-8-(6-fluoro-1-(methylsulfonyl)-1H-indol-4-yl)-1,4,4-trimethyl-9-(trifluoromethyl)-4,5-dihydro-[1,2,4]triazolo[4,3-a]quinoxaline] it is 100 to 1000 nM; for `Cc1c(-c2cccc3c(C)n[nH]c23)cc(F)c2c1-n1c(C)nnc1C(C)(C)N2` [Example 352, 6-Fluoro-1,4,4,9-tetramethyl-8-(3-methyl-1H-indazol-7-yl)-5H-[1,2,4]triazolo[4,3-a]quinoxaline] it is 100 to 1000 nM.

Take `Cc1nnc2n1-c1c(c(F)cc(-c3cccc4c3ccn4S(C)(=O)=O)c1C(F)F)NC2(C)C` [Example 459, 9-(Difluoro-methyl)-6-fluoro-1,4,4-trimethyl-8-(1-methylsulfonyl-1H-indol-4-yl)-5H-[1,2,4]triazolo[4,3-a]quinoxaline]: the IC50 or EC50 (antagonist or agonist mode, not stated per compound) was less than 100 nM.

As to `Cc1c(-c2cc(C(F)(F)F)cc3[nH]ncc23)cc(F)c2c1-n1c(C)nnc1C(C)(C)N2` [Example 507, 6-Fluoro-1,4,4,9-tetramethyl-8-[6-(trifluoromethyl)-1H-indazol-4-yl]-5H-[1,2,4]triazolo[4,3-a]quinoxaline], the IC50 or EC50 (antagonist or agonist mode, not stated per compound) was in the range of 100 to 1000 nM. In the case of `Cc1c(-c2cc(F)cc3c2cnn3S(C)(=O)=O)c(F)c(F)c2c1-n1c(C)nnc1C(C)(C)N2` [Example 452, 6,7-Difluoro-8-(6-fluoro-1-methylsulfonyl-1H-indazol-4-yl)-1,4,4,9-tetramethyl-5H-[1,2,4]triazolo[4,3-a]quinoxaline], the IC50 or EC50 (antagonist or agonist mode, not stated per compound) was less than 100 nM. The figure for `CNc1c(-c2cc(F)cc3c(C)c[nH]c23)cc(F)c2c1-n1c(C)nnc1C(C)(C)N2` [Example 487, [6-Fluoro-8-(5-fluoro-3-methyl-1H-indol-7-yl)-1,4,4-trimethyl-5H-[1,2,4]triazolo[4,3-a]quinoxalin-9-yl]-methyl-amine] is less than 100 nM; for `Cc1c(-c2cccc3c(C)c[nH]c23)c(F)c(F)c2c1-n1c(C)nnc1C(C)(C)N2` [Example 513, 6,7-Difluoro-1,4,4,9-tetramethyl-8-(3-methyl-1H-indol-7-yl)-5H-[1,2,4]triazolo[4,3-a]quinoxaline] it is 100 to 1000 nM; for `Cc1c(-c2cccc3c2ccn3S(C)(=O)=O)c(F)c(Cl)c2c1-n1c(C)nnc1C(C)(C)N2` [Example 502, 6-Chloro-7-fluoro-1,4,4,9-tetramethyl-8-(1-methylsulfonyl-1H-indol-4-yl)-5H-[1,2,4]triazolo[4,3-a]quinoxaline] it is less than 100 nM.

`Cc1nnc2n1-c1c(CO)c(-c3cc(F)cc4c3ccn4S(C)(=O)=O)cc(F)c1NC2(C)C` [Example 453, [6-Fluoro-8-(6-fluoro-1-methylsulfonyl-1H-indol-4-yl)-1,4,4-trimethyl-5H-[1,2,4]triazolo[4,3-a]quinoxalin-9-yl]-MeOH]: the IC50 or EC50 (antagonist or agonist mode, not stated per compound) is less than 100 nM. The figure for `CCc1c(-c2cc(F)cc3c2cnn3S(C)(=O)=O)cc(F)c2c1-n1c(C)nnc1C(C)(C)N2` [Example 53, 9-Ethyl-6-fluoro-8-(6-fluoro-1-methylsulfonyl-1H-indazol-4-yl)-1,4,4-trimethyl-5H-[1,2,4]triazolo[4,3-a]quinoxaline] is 100 to 1000 nM.

The values are drawn from US11981677B2, “Further substituted triazolo quinoxaline derivatives” (Grünenthal GmbH, priority 2018, dated 2024).
